Measurements from patent US10752587B2, “Homobispiperidinyl derivatives as liver X receptor beta agonists, compositions and their use” (Merck Sharp & Dohme Corp., priority 2015, dated 2020).
pEC50: −log10 of the molar value. Like-named read-outs stand apart in the source and are kept apart here.

What was measured:
[1] = target: T1, glutathione-S-transferase (GST) tagged LXRalpha LBD (ligand binding domain) (Homo sapiens, UniProt Q13133); assay: LanthaScreen TR-FRET Liver X Receptor Coactivator Assay, co-activator recruitment to LXRalpha LBD; type: biochemical; conditions: for pEC50 / LXR alpha IP (nM): potency (Inflection Point, IP), co-activator recruitment to LXRalpha LBD, in relation to T0901317; for pEC50: read-out: LXR alpha IP
T1 construct: purchased Invitrogen pv4655
T1 sequence (Q13133 209-447 limits assumed): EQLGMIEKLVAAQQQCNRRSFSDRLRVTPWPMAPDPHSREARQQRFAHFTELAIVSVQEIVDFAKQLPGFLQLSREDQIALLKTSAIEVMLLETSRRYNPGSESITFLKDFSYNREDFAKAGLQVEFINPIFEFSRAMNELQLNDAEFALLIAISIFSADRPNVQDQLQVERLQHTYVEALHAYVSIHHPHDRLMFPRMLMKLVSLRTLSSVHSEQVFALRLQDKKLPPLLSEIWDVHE
How it was run: (§1)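 LXRα- or LXRβ-LBD protein was added to test compounds, then fluorescein-labelled coactivator peptide plus Tb-anti-GST antibody; after room-temperature incubation, TR-FRET was read. Inflection point (IP) and Emax were expressed relative to the dual agonist reference T0901317.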

[2] = target: T2, glutathione-S-transferase (GST) tagged LXRbeta LBD (ligand binding domain) (Homo sapiens, UniProt P55055); assay: LanthaScreen TR-FRET Liver X Receptor Coactivator Assay, co-activator recruitment to LXRbeta LBD; type: biochemical
T2 construct: purchased Invitrogen pv4658.pps
T2 sequence (P55055 222-460 limits assumed): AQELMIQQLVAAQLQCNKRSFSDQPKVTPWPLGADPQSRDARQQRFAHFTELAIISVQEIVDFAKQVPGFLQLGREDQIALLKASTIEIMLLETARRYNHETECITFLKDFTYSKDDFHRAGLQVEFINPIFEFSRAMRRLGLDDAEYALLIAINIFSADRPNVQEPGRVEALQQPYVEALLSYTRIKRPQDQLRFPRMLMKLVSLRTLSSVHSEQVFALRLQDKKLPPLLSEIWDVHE
How it was run: as §1

[3] = efficacy at max dose, in relation to reference dual agonist T0901317, read-out: LXR alpha Activity @ max dose (%)
[4] = efficacy at max dose, in relation to reference dual agonist T0901317, read-out: LXR beta Activity @ max dose (%)
[5] = potency (Inflection Point, IP), co-activator recruitment to LXRbeta LBD, in relation to T0901317, read-out: LXR beta IP

Emax [1, 3] [%]	pEC50 [1]	Emax [2, 4] [%]	pEC50 [2, 5]	LXR alpha IP (nM) [1]	LXR alpha IP (Inflection Point, potency) ([1]; co-activator recruitment to GST-LXRalpha LBD, TR-FRET)	Emax ([1]; efficacy in relation to reference dual agonist T0901317, read-out: LXR alpha Activity @ max dose) [%]	pEC50 ([2]; co-activator recruitment to GST-LXRbeta LBD, TR-FRET, read-out: LXR beta IP (Inflection Point, potency))	Emax ([2]; efficacy in relation to reference dual agonist T0901317, read-out: LXR beta Activity @ max dose) [%]	LXR beta Activity @ max dose (%) ([2]; efficacy at max dose, in relation to reference dual agonist T0901317)	SMILES
21	6.45	77	8.00	–	–	–	–	–	–	CN(C)C(=O)c1ccc(N2CCC(CC3CCN(C(=O)C(O)(c4cccc(C(F)(F)F)c4)C(F)(F)F)CC3)CC2)nc1Cl (centres unmarked) [Example 7-54, 2-chloro-N,N-dimethyl-6-{4-[(1-{3,3,3-trifluoro-2-hydroxy-2-[3-(trifluoromethyl)phenyl]propanoyl}piperidin-4-yl)methyl]piperidin-1-yl}pyridine-3-carboxamide]
4	–	81	6.47	NO IP	–	–	–	–	–	CO[C@](C(=O)N1CCC(OC2CCN(c3ccc(C(=O)N(C)C)c(Cl)c3)CC2)CC1)(c1ccccc1)C(F)(F)F [Example 2-20, 2-chloro-N,N-dimethyl-4-[4-({1-[(2S)-3,3,3-trifluoro-2-methoxy-2-phenylpropanoyl]piperidin-4-yl}oxy)piperidin-1-yl]benzamide]
–	–	–	–	–	NO IP	16	7.08	54	–	CN(C)C(=O)c1ccc(N2CCC(CC3CCN(S(=O)(=O)c4cccc(Br)c4)CC3)CC2)cc1Cl [Example 13-12, 4-[4-({1-[(3-bromo-phenyl)sulfonyl]-piperidin-4-yl}methyl)-piperidin-1-yl]-2-chloro-N,N-dimethyl-benzamide]
19	–	51	6.69	NO IP	–	–	–	–	–	CN(C)C(=O)c1ccc(N2CCC(CC3CCN(C(=O)C(F)(F)c4cccc(Cl)c4)CC3)CC2)nc1Cl [Example 7-81, 2-chloro-6-[4-({1-[(3-chlorophenyl) (difluoro)acetyl]piperidin-4-yl}methyl)piperidin-1-yl]-N,N-dimethylpyridine-3-carboxamide]
18	5.70	67	6.92	–	–	–	–	–	–	CN(C)C(=O)c1ccc(N2CCC(CC3CCN(C(=O)[C@](O)(c4cccc(OC(F)F)c4)C(F)(F)F)CC3)CC2)cc1 [Example 2-134, 4-{4-[(1-{(2R)-2-[3-(difluoro-methoxy)phenyl]-3,3,3-trifluoro-2-hydroxy-propanoyl}piperidin-4-yl)methyl]piperidin-1-yl}-N,N-dimethyl-benzamide]
–	–	–	7.80	NO IP	–	–	–	–	90	CNC(=O)c1ccc(N2CCC(CC3CCN(C(=O)C(O)(c4cccc(Cl)c4)C(F)(F)F)CC3)CC2)cc1Cl (centres unmarked) [Example 7-129, 2-chloro-4-[4-({1-[2-(3-chlorophenyl)-3,3,3-trifluoro-2-hydroxypropanoyl]piperidin-4-yl}methyl)piperidin-1-yl]-N-methylbenzamide]
14	–	78	8.05	NO IP	–	–	–	–	–	CNC(=O)c1ccc(N2CCC(CC3CCN(C(=O)[C@](O)(c4cc(Cl)cc(Cl)c4)C(F)(F)F)CC3)CC2)nc1Cl [Example 7-134, 2-chloro-6-[4-({1-[(2R)-2-(3,5-dichlorophenyl)-3,3,3-trifluoro-2-hydroxypropanoyl]piperidin-4-yl}methyl)piperidin-1-yl]-N-methylpyridine-3-carboxamide]
9	–	43	7.80	NO IP	–	–	–	–	–	Cc1cccc([C@@](O)(C(=O)N2CCC(CC3CCN(c4ccc(C(=O)N(C)C)c(C)c4)CC3)CC2)C(F)(F)F)c1 [Example 2-157, N,N,2-trimethyl-4-[4-({1-[(2R)-3,3,3-trifluoro-2-hydroxy-2-(3-methylphenyl)propanoyl]piperidin-4-yl}methyl)piperidin-1-yl]benzamide]
0	–	68	7.64	NO IP	–	–	–	–	–	COc1cccc(C(O)(C(=O)N2CCC(OC3CCN(c4ccc(C(=O)N(C)C)c(Cl)c4)CC3)CC2)C(F)(F)F)c1 (centres unmarked) [Example 2-26, 2-chloro-N,N-dimethyl-4-[4-({1-[3,3,3-trifluoro-2-hydroxy-2-(3-methoxyphenyl)propanoyl]piperidin-4-yl}oxy)piperidin-1-yl]benzamide]
50	7.06	91	8.52	–	–	–	–	–	–	CN(C)C(=O)c1ccc(N2CCC(CC3CCN(C(=O)[C@](O)(c4cccc(F)c4)C(F)(F)F)CC3)CC2)nc1Cl [Example 7-72, 2-chloro-N,N-dimethyl-6-[4-({1-[(2R)-3,3,3-trifluoro-2-(3-fluorophenyl)-2-hydroxypropanoyl]piperidin-4-yl}methyl)piperidin-1-yl]pyridine-3-carboxamide]
30	6.57	73	7.54	–	–	–	–	–	–	CC(C)N(C)C(=O)c1ccc(N2CCC(CC3CCN(C(=O)[C@](O)(c4ccccc4)C(F)(F)F)CC3)CC2)cc1Cl [Example 4-2, 2-chloro-N-methyl-N-(1-methylethyl)-4-[4-({1-[(2R)-3,3,3-trifluoro-2-hydroxy-2-phenyl-propanoyl]piperidin-4-yl}methyl)piperidin-1-yl]benzamide]
51	6.90	113	8.05	–	–	–	–	–	–	CNC(=O)c1ccc(N2CCC(CC3CCN(C(=O)[C@](O)(c4cccc(Br)c4)C(F)(F)F)CC3)CC2)nc1Cl [Example 7-146, 6-[4-({1-[(2R)-2-(3-bromophenyl)-3,3,3-trifluoro-2-hydroxypropanoyl]piperidin-4-yl}methyl)piperidin-1-yl]-2-chloro-N-methylpyridine-3-carboxamide]
20	6.61	98	8.15	–	–	–	–	–	–	CNC(=O)c1ccc(N2CCC(CC3CCN(C(=O)[C@](O)(c4cc(F)cc(OC)c4)C(F)(F)F)CC3)CC2)cc1Cl [Example 7-118, 2-chloro-N-methyl-4-[4-({1-[(2R)-3,3,3-trifluoro-2-(3-fluoro-5-methoxyphenyl)-2-hydroxypropanoyl]piperidin-4-yl}methyl)piperidin-1-yl]benzamide]
13	–	55	8.30	NO IP	–	–	–	–	–	COc1cccc([C@@](O)(C(=O)N2CCC(CC3CCN(c4ccc(C(N)=O)c(Cl)c4)CC3)CC2)C(F)(F)F)c1 [Example 12-4, 2-chloro-4-[4-({1-[(2R)-3,3,3-trifluoro-2-hydroxy-2-(3-methoxyphenyl)-propanoyl]piperidin-4-yl}methyl)piperidin-1-yl]benzamide]
0	–	19	7.72	NO IP	–	–	–	–	–	COc1cccc([C@@](O)(C(=O)N2CCC(C)(CC3CCN(c4ccc(C(=O)N(C)C)c(C)c4)CC3)CC2)C(F)(F)F)c1 [Example 2-80, N,N,2-trimethyl-4-[4-({4-methyl-1-[(2R)-3,3,3-trifluoro-2-hydroxy-2-(3-methoxyphenyl)propanoyl]piperidin-4-yl}methyl)piperidin-1-yl]benzamide]
0	–	36	5.89	NO IP	–	–	–	–	–	CCOc1cccc([C@@](O)(C(=O)N2CCC(CC3CN(c4ccc(C(=O)N(C)C)c(C5CC5)n4)C3)CC2)C(F)(F)F)c1 [Example 7-17, 2-cyclopropyl-6-[3-({1-[(2R)-2-(3-ethoxyphenyl)-3,3,3-trifluoro-2-hydroxypropanoyl]piperidin-4-yl}methyl)azetidin-1-yl]-N,N-dimethylpyridine-3-carboxamide]
0	–	30	7.57	NO IP	–	–	–	–	–	COc1cc(Cl)cc([C@@](O)(C(=O)N2CCC(C)(CC3CCN(c4ccc(C(=O)N(C)C)c(Cl)c4)CC3)CC2)C(F)(F)F)c1 [Example 2-48, 2-chloro-4-[4-({1-[(2R)-2-(3-chloro-5-methoxyphenyl)-3,3,3-trifluoro-2-hydroxy-propanoyl]-4-methyl-piperidin-4-yl}methyl)piperidin-1-yl]-N,N-dimethyl-benzamide]
27	6.47	90	7.80	–	–	–	–	–	–	CNC(=O)c1ccc(N2CCC(CC3CCN(C(=O)C(O)(c4cccc(Cl)c4)C(F)(F)F)CC3)CC2)cc1Cl (centres unmarked) [Example 7-37, 2-chloro-4-[4-({1-[2-(3-chlorophenyl)-3,3,3-trifluoro-2-hydroxypropanoyl]piperidin-4-yl}methyl)piperidin-1-yl]-N-methylbenzamide]
